Consider three compounds from patent publication US20120270832A1, “KETONE ACCUMULATION INHIBITOR” (MITSUI SUGAR CO., LTD., priority 2008, published 2012).

The nature of data set [1]: Drinking test: test drink intake after one hour of exercising. Format: in vivo, human. As to conditions: for blood free fatty acid levels changes over time: FIG. 4; for blood lactic acid levels changes over time: FIG. 5; for blood total ketone bodies levels changes over time: FIG. 13; for amount of oxidized carbohydrate changes over time / amount of oxidized lipids (fat) changes over time: calculated from VO2 and VCO2 by Frayn's equation; for amount of oxidized carbohydrate changes over time: FIG. 7; for amount of oxidized lipids (fat) changes over time: FIG. 8; for respiratory quotient changes over time: calculated from oxygen intake and carbon dioxide excretion, FIG. 6; for lipid oxidation, overall finding: recognized from FIGS. 4, 5, 7 and 8; for blood glucose levels (blood sugar level) changes over time: male subjects with suspected metabolic syndrome, drink in 500 ml water taken after 1 h exercise at about 50% VO2 max, blood sampled 10-120 min after intake, FIG. 1. As to the method:
To male subjects with suspected metabolic syndrome and 85 cm or more of abdominal circumferences who lack in exercise, the following test was conducted. […] The subjects, who had family histories of cardiopathy or type 2 diabetes and/or had dyslipidemia, were eliminated from the test. Palatinose or high-fructose corn syrup was dissolved in 500 ml of water so that its intake per kg of body weight could be 1.0 g of the solid, and sucralose, a high intensity sweetener, was dissolved in 500 ml of water so that its intake per kg of body weight could be 1.33 mg of the solid that gives the degree of sweetness between the high-fructose corn syrup and palatinose solutions, to prepare three kinds of test drinks. For these three kinds of drinks, drinking tests were conducted, respectively and each test was conducted at intervals of ten days or longer. The high-fructose corn syrup is composed of glucose and fructose, the same constituent sugars as sucrose and palatinose, and its calorie per the solid is 4 kcal/g which is the same value as that of sucrose and palatinose.
The method of physical measurement for the subjects was based on ACSM guideline (American College of Sports Medicine, 2001). Respiratory gas was collected and analyzed by a respiratory gas automatic analyzer (Oxycon Alpha, manufactured by Mijnhardt) every 30 seconds during the test. Maximal oxygen uptake (VO2max) was calculated by increasing exercise loading gradually with a bicycle ergometer (818E, manufactured by Monark).
The tests were conducted as a double-blind crossover tests and dietary restriction was imposed on the subjects from two days before the tests. All subjects were instructed to abstain from alcohol, caffeine, green tea and high-intensity exercising 24 hours before the tests. Moreover, they recorded food intake two days before the first tests and repeated the same food intake before the second tests. This is for standardizing of the food intake before the tests and for minimizing the change of glycogen storage. All subjects took the same food as the dinner a day before all tests (725 kcal, 60% of the energy from carbohydrate, 30% from lipid and 10% from protein). After an overnight (10 hours to 12 hours) fast, the tests were conducted. During the fasting period, they were permitted to take water freely.
In order to avoid the effect of circadian rhythm, the tests were started at the same time. After the 15 minutes rest, the first venous blood sampling was conducted. The subjects exercised for an hour with loading of about 50% of VO2 max by a bicycle ergometer. After exercising, blood sampling was conducted and they took the test drinks for 5 minutes. Blood sampling was conducted at time points of 10, 20, 30, 45, 60, 75, 90, 105 and 120 minutes after the test drink was taken in. The collected blood samples were submitted for various biochemical measurements. After the drink intake, their heart rates were continuously measured with an electrocardiograph (Dyan Scope, manufactured by Fukuda Denshi).
On the assumption that oxidation of proteins during exercising can be ignored, oxidation of total carbohydrates and lipids was calculated from VO2 and VCO2 using Frayn's equation. The VO2 and VCO2 represent oxygen intake and carbon dioxide excretion in L/min, respectively. Respiratory quotient (RQ) was calculated from oxygen intake and carbon dioxide excretion. Calorie consumption rate was calculated from RQ and VO2 using Lusk's equation.

The conditions of data set [2]: into 100 g water at 20° C.; cited from earlier work.

“Also recorded” adds a separate entry of the source.

In the case of `OC[C@H]1O[C@H](O[C@]2(CCl)O[C@H](CCl)[C@@H](O)[C@@H]2O)[C@H](O)[C@@H](O)[C@H]1Cl` [sucralose, reference compound], in data set [1] (drink intake after exercising), the “blood free fatty acid levels changes over time” value was “the higher values were maintained”, the “blood lactic acid levels changes over time” value is on record as “no change”, the “blood total ketone bodies levels changes over time” value was “rose” and the “amount of oxidized carbohydrate changes over time” value is listed as “lower values”. Also, in data set [1] (drink intake after exercising), the “amount of oxidized lipids (fat) changes over time” value was “higher values”; the “respiratory quotient changes over time” value is on record as roughly 0.7; the “lipid oxidation, overall finding” value is “maintained”. Further, in data set [1] (drink intake after exercising, FIG. 12), the “blood 3-OHBA levels changes over time” value is given as “rose”. Moreover, the “blood glucose levels (blood sugar level) changes over time” value in data set [1] is “did not rise”.
Turning to `O.OC[C@H]1O[C@H](OC[C@H]2OC(O)(CO)[C@@H](O)[C@@H]2O)[C@H](O)[C@@H](O)[C@@H]1O` (stereo partly shown) [Palatinose monohydrate], in data set [2], the “solubility into 100 g water” value is 38.4 g.
On to `OC[C@H]1O[C@H](OC[C@H]2OC(O)(CO)[C@@H](O)[C@@H]2O)[C@H](O)[C@@H](O)[C@@H]1O` (stereo partly shown) [palatinose, isomaltulose], for which the “blood insulin levels changes over time (insulin secretion)” value in data set [1] (drink intake after exercising, FIG. 2) is “mild”. In addition, in data set [1] (drink intake after exercising), the “blood free fatty acid levels changes over time” value was “between those in taking high-fructose corn syrup and in taking sucralose”; the “blood lactic acid levels changes over time” value was “between those in taking high-fructose corn syrup and in taking sucralose”; the “blood total ketone bodies levels changes over time” value is reported as “dropped without their accumulation in blood; also recorded: inhibit accumulation of ketone bodies”; the “amount of oxidized carbohydrate changes over time” value was “between those of high-fructose corn syrup and sucralose”. In data set [1] (drink intake after exercising), the “amount of oxidized lipids (fat) changes over time” value was “between those of high-fructose corn syrup and sucralose”; the “respiratory quotient changes over time” value was “between those in taking high-fructose corn syrup and in taking sucralose”; the “lipid oxidation, overall finding” value is “rather difficult to prevent”. For the same compound, the “blood neutral fat levels changes over time” value in data set [1] (drink intake after exercising, FIG. 9) is listed as “no effect”. For the same compound, in data set [1] (drink intake after exercising, FIG. 10), the “blood epinephrine levels changes over time” value was “no effect”. In data set [1] (drink intake after exercising, FIG. 11), the “blood nolepinephrine levels changes over time” value is on record as “no effect”. In addition, the “blood glucose levels (blood sugar level) changes over time” value in data set [1] was “rose slowly thereafter, surpassed that in the case of taking high-fructose corn syrup around 60 minutes thereafter, and continued maintaining a relatively high value”.
